The values below come from ChEMBL document CHEMBL1130959, “Synthesis and effects of novel thiazole derivatives against thrombocytopenia” (1998).

The structures appear in SMILES notation.

What all share (type): functional
Details in all cases: route oral

Assay [1] deals with Mus musculus. The assay is described as follows: Percentage of the number of platelets for the treated versus mitomycin C(MMC) control group in the MMC-induced thrombocytopenic mice at a dose of 100 mg/kg following peroral administration.
Assay [2] deals with Mus musculus. The assay is described as follows: Percentage of the number of platelets for the treated versus mitomycin C(MMC) control group in the MMC-induced thrombocytopenic mice at a dose of 10 mg/kg following peroral administration.
The subject of assay [3] is Mus musculus. The assay is described as follows: Percentage of the number of platelets for the treated versus mitomycin C(MMC) control group in the MMC-induced thrombocytopenic mice at a dose of 32 mg/kg following peroral administration.

In the assay with Mus musculus [1], `Nc1ncc([S+]([O-])c2nccs2)s1` (configuration not stated) had a No. of platelets of 146%. On to `[O-][S+](c1ccccn1)c1cncs1` (configuration not stated), for which the No. of platelets in the assay with Mus musculus [2] stood at 124%; with Mus musculus [3], 148%; in the assay with Mus musculus [1] it was 171%. Taken in the same sequence, the figures for `Nc1ncc([S+]([O-])c2cccc3cccnc23)s1` (configuration not stated) were 116%, 123% and 188%.

In the case of `Nc1ncc([S+]([O-])c2ccc3ccccc3n2)s1` (configuration not stated), the No. of platelets with Mus musculus [2] came out at 138%; in the assay on Mus musculus [3] it was 153%; in the assay with Mus musculus [1], 181%. For `Cc1ccc2nc([S+]([O-])c3cnc(N)s3)ccc2c1` (configuration not stated), the No. of platelets in the assay with Mus musculus [1] came to 146%. For `Nc1ncc([S+]([O-])c2nc3ccccc3[nH]2)s1` (configuration not stated), the No. of platelets was 92% with Mus musculus [2], 112% with Mus musculus [3] and 165% with Mus musculus [1]. With `Nc1ncc([S+]([O-])c2ccccn2)s1` (configuration not stated), the No. of platelets in the assay with Mus musculus [3] was found to be 154%.

In the assay with Mus musculus [3], `Nc1ncc([S+]([O-])c2ncccn2)s1` (configuration not stated) registered a No. of platelets of 116%.

`Nc1ncc([S+]([O-])c2ccc3cc(F)ccc3n2)s1` (configuration not stated) showed a No. of platelets with Mus musculus [1] of 162%. The molecule `Nc1ncc([S+]([O-])c2cccnc2)s1` (configuration not stated) showed a No. of platelets in the assay on Mus musculus [3] of 115%. Turning to `Nc1ncc(S(=O)(=O)c2ccccn2)s1`, the figures for the No. of platelets in the assay with Mus musculus [2], in the assay with Mus musculus [3] and with Mus musculus [1] were 94%, 143% and 139%, respectively. Consider `Nc1ncc(C(=O)c2ccccn2)s1`, for which the No. of platelets with Mus musculus [1] came to 140%. Still for that read-out and setting: the figure for `Nc1ncc(Sc2ccccn2)s1` is 147%. In the assay with Mus musculus [1], `Nc1ncc([S+]([O-])c2cnc3ccccc3n2)s1` (configuration not stated) had a No. of platelets of 131%. For `Nc1ncc([S+]([O-])c2cccs2)s1` (configuration not stated), in the assay with Mus musculus [1], the No. of platelets worked out at 138%. With `CNc1ncc([S+]([O-])c2ccccn2)s1` (configuration not stated), in the assay on Mus musculus [1], the No. of platelets was determined as 132%. In turn, `Nc1ncc([S+]([O-])c2ccc3cccnc3n2)s1` (configuration not stated) showed a No. of platelets in the assay on Mus musculus [3] of 130%. As for `Cc1nc(N)sc1[S+]([O-])c1ccccn1` (configuration not stated), in the assay with Mus musculus [1], the No. of platelets is listed as 118%.

Turning to `Nc1nnc([S+]([O-])c2ccc3ccccc3n2)s1` (configuration not stated), the No. of platelets in the assay with Mus musculus [1] was 102%. For `Nc1ccc(S(=O)(=O)c2ccc(N)cc2)cc1` [DAPSONE], the No. of platelets in the assay on Mus musculus [2] is 91%; in the assay with Mus musculus [3], 125%; with Mus musculus [1] it was 150%.
